What all share (assay type): cell-based
Assay [1] has as its system IL-1β. Description: IL-1 beta in LPS-induced PBMCs / CD14+ monocytes, Meso Scale assay. Summed up: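 Thawed PBMCs or CD14+ mobilized peripheral blood monocytes were plated at 200,000 cells per well, pretreated with compound or DMSO for 1 h, then stimulated with 100 ng/mL LPS for 18-24 h. Supernatant IL-1 beta was measured by Meso Scale assay, with activity expressed relative to the DMSO control.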

Assay [2] deals with IL-6. Description: IL-6 in LPS-induced PBMCs / CD14+ monocytes, Meso Scale assay. Summed up:
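Frozen PBMCs or CD14+ monocytes were plated at 200,000 cells/well and pretreated 1 h with compound or DMSO. They were then stimulated with 100 ng/mL LPS for 18–24 h, and supernatant IL-6 was measured by Meso Scale assay. Activity is expressed relative to the LPS-induced DMSO control.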

The subject of assay [3] is TNF-α. Description: TNF-alpha in LPS-induced PBMCs / CD14+ monocytes, Meso Scale assay. Summed up: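 Frozen human PBMCs or CD14+ mobilized peripheral blood monocytes pretreated with compound 1 h, then stimulated with 100 ng/mL LPS for 18-24 h. Supernatant TNF-alpha measured by Meso Scale immunoassay; activity expressed relative to LPS-induced DMSO control.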
The test system of assay [4] is IL-2. In words: IL-2 in PBMCs on anti-human CD3 (OKT3) coated plates, Mesoscale analysis. Particulars: PBMC, 24 h, relative to DMSO control, read-out: Fold Change IL-2. The gist of the method: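 PBMCs (3-4 million cells/mL) with compounds were stimulated on plates precoated with 1 μg/mL anti-human CD3 (OKT3) for 24 h. Supernatant IL-2 was measured by Mesoscale, activity expressed as fold difference from DMSO control.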

The test system of assay [5] is Molm-13 cells. Description: Cell viability assay (CellTiter-Glo), Molm-13 cells. Particulars: Homo sapiens, 72 h, 3 days; for viability at 10 µM: MOLM-13, 10 μM. The gist of the method:
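Molm-13 cells in RPMI-1640/10% FBS, 20,000 per well, exposed to compound or DMSO for 3 days at 37° C, 5% CO2. Viable cells quantified by CellTiter-Glo luminescence after 10 min shaking.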
Background: In ATP-based viability assays light output follows the ATP content of the culture.

In assay [6] the test system is H1048 cells. Description: Cell viability assay (CellTiter-Glo), H1048 cells. Particulars: Homo sapiens, NCI-H1048, 72 h, 3 days; for viability at 1 µM: H1048, 1 μM; for viability at 10 µM: H1048, 10 μM. Summed up:
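H1048 cells in supplemented DMEM:F12 with 5% FBS, 20,000 cells/well, exposed to compound or DMSO for 3 days at 37 °C, 5% CO2. Viability read by CellTiter-Glo luminescence after 10 min shaking.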

Assay [7] deals with T1, GSPT1 (Homo sapiens, UniProt P15170).
T1 construct: Whole cell extract was prepared with RIPA buffer according to manufacturer's protocol; endogenous in cells; host or cells: Jurkat cells
Description: Western blot analysis of GSPT1 protein levels in Jurkat cells. Particulars: DMSO = 100.00; for GSPT1 protein level (% of DMSO control) at 0.1 µM: 100 nM compound; for GSPT1 protein level (% of DMSO control) at 1 µM: 1 uM compound. Summed up: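 Jurkat cells (~10^6 cells/mL, RPMI 1640 + 10% FBS) treated with compound or DMSO for 4 h or 6–8 h; RIPA whole-cell lysates run on 4–12% SDS-PAGE and immunoblotted with HRP or IRDye secondaries (Odyssey imaging). Activity read as decrease in GSPT1 protein versus DMSO.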
(In western blotting, separated proteins are transferred to a membrane and probed.)

T1 sequence (P15170 whole entry): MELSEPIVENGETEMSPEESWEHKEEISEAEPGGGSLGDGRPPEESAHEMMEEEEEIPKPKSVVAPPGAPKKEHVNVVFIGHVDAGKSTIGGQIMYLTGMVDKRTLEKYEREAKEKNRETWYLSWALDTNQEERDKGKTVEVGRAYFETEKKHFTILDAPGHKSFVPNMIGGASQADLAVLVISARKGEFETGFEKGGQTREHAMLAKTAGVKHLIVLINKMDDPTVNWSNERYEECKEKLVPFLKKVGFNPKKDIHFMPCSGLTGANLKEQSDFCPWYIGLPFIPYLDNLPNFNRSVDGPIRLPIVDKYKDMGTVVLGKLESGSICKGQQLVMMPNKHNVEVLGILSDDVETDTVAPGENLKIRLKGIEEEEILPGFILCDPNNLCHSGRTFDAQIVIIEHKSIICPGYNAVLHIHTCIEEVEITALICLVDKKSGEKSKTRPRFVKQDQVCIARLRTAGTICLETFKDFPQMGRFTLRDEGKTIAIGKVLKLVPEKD

As for `O=C1CCC[C@H](N2Cc3cc(CNC(=O)C(F)(F)c4ccc(F)cc4)ccc3C2=O)C(=O)N1` [Compound 25, (S)—N-((2-(2,7-dioxoazepan-3-yl)-1-oxoisoindolin-5-yl)methyl)-2,2-difluoro-2-(4-fluorophenyl)acetamide], the inhibition at 0.1 µM in assay [1] was 38%; in assay [2], 12%; in assay [3], 36%. The fold induction at 0.1 µM in assay [4] was found to be 1.4. For the same compound, the results for the viability at 10 µM in assay [5] and in assay [6] were 96% and 26.6%, respectively. For the same compound, in assay [6], the viability at 1 µM amounted to 88.1%. Moreover, in assay [7], the GSPT1 protein level (% of DMSO control) at 0.1 µM is 98.1%. Besides, the GSPT1 protein level (% of DMSO control) at 1 µM in assay [7] is 63.5%.

For the compound `Cc1ccc(N(C)C(=O)NCc2ccc3c(c2)CN([C@H]2CCCC(=O)NC2=O)C3=O)cc1Cl` [Compound 21, (S)-1-(3-chloro-4-methylphenyl)-3-((2-(2,7-dioxoazepan-3-yl)-1-oxoisoindolin-5-yl)methyl)-1-methylurea], the inhibition at 0.1 µM in assay [1] turned out to be 27%; in assay [2] it was 18%; in assay [3], 20%. Also, the fold induction at 0.1 µM in assay [4] was 0.9. Also, the viability at 10 µM was determined as 25% in assay [5] and 45.3% in assay [6]. In assay [6], this compound showed a viability at 1 µM of 95.5%. For the same compound, the GSPT1 protein level (% of DMSO control) at 0.1 µM in assay [7] was determined as 126%. This compound displayed a GSPT1 protein level (% of DMSO control) at 1 µM in assay [7] of 134%.

Regarding `Cc1c(Cl)cccc1NC(=O)NCc1ccc2c(c1)CN([C@H]1CCCC(=O)NC1=O)C2=O` [Compound 5, (S)-1-(3-chloro-2-methylphenyl)-3-((2-(2,7-dioxoazepan-3-yl)-1-oxoisoindolin-5-yl)methyl)urea], the inhibition at 1 µM worked out at 90% in assay [1] (1 μM), 99% in assay [2] (1 μM) and 92% in assay [3] (1 μM). In assay [4] (1 μM), the fold induction at 1 µM was 1.3. Also, the viability at 0.6 µM in assay [5] (MOLM-13, 0.6 μM) worked out at 50%. In assay [6], this compound displayed a viability at 1 µM of 27.3%. This compound gave a viability at 10 µM in assay [6] of 2.36%. Besides, the GSPT1 protein level (% of DMSO control) at 0.1 µM in assay [7] is 80.2%. Besides, the GSPT1 protein level (% of DMSO control) at 1 µM in assay [7] came out at 15.7%.

As for `Cc1ccc(NC(=O)NCc2cccc3c2CN([C@H]2CCCC(=O)NC2=O)C3=O)cc1Cl` [Compound 17, (S)-1-(3-chloro-4-methylphenyl)-3-((2-(2,7-dioxoazepan-3-yl)-1-oxoisoindolin-4-yl)methyl)urea], the inhibition at 0.1 µM in assay [1] was found to be 19%; in assay [2], 0%; in assay [3] it was 18%. For the same compound, the fold induction at 0.1 µM in assay [4] was 1.3. For the same compound, the viability at 10 µM in assay [5] came out at 91%; in assay [6] it was 34.9%. The compound further showed a viability at 1 µM in assay [6] of 95.5%. The compound also gave a GSPT1 protein level (% of DMSO control) at 0.1 µM in assay [7] of 131%. This compound registered a GSPT1 protein level (% of DMSO control) at 1 µM in assay [7] of 80.5%.

As for `Cc1ccc(NC(=O)NCc2ccc3c(c2C)CN([C@H]2CCCC(=O)NC2=O)C3=O)cc1Cl` [Compound 16, (S)-1-(3-chloro-4-methylphenyl)-3-((2-(2,7-dioxoazepan-3-yl)-4-methyl-1-oxoisoindolin-5-yl)methyl)urea], the values for the inhibition at 0.1 µM in assay [1], in assay [2] and in assay [3] were 72%, 72% and 78%, respectively. In addition, the fold induction at 0.1 µM in assay [4] turned out to be 1.7. Also, the viability at 0.5 µM in assay [5] (MOLM-13, 0.5 μM) amounted to 70%. This compound had a viability at 1 µM in assay [6] of 7.66%. The compound further registered a viability at 10 µM in assay [6] of 3.93%. Also, in assay [7], the GSPT1 protein level (% of DMSO control) at 0.1 µM stood at 59.4%. The compound also came in with a GSPT1 protein level (% of DMSO control) at 1 µM in assay [7] of 39.3%.

The inhibition is the percentage by which the read-out fell short of the control. The low end stands for little suppression, the high end for strong suppression. A word on the viability: it is the share of living cells, or the viability signal relative to a control.

Source of the values: patent US10857155B2, “Compounds targeting proteins, compositions, methods, and uses thereof” (BioTheryX, Inc., priority 2017, dated 2020).
